# Assay results taken from patent publication US20060047171A1, “Catalytic hydrogenation of nitriles to produce capsaicinoid derivatives and amine compounds, and methods for purifying and obtaining the polymorphs thereof” (priority 2003, published 2006).
# Entries after “also recorded” stand apart in the source; their conditions may differ. Where two headings read alike, the source gives them in different places.
# Tests used:
# [1] = tested on: tail flick response to radiant heat; conditions: cited from earlier work; for Inhibition (%): mice
# [2] = tested on: yeast induced hyperalgesia; test: Randall-Selitto test; assay type: in vivo, rat; conditions: rats, pain threshold of yeast-injected foot
# Method: Randall-Selitto Test was carried out by following the method described in Arch. Int.
# Male albino rats (120-170 g) of the Charles River Sprague-Dawley strain are used. Inflammation is produced by the injection of 0.1 mL of a 20% suspension of Brewer's yeast into the plantar surface of the rat's hind foot.
# The pain threshold is measured as the pressure in mm Hg required to induce the desired response (a sharp audible squeak and/or struggle) when the pressure is applied to the foot. Air pressure from an air line is admitted through a needle valve to a 20 mL glass syringe and to a pressure gauge connected by a T-tube. The syringe is mounted with the plunger downward to which is connected a short bullet-shaped Teflon peg. The pressure is applied to the foot of the rat at the rate of 10 mmHg per second. Drug is given 2 hours after the yeast injection. Two hours after the drug administration, threshold response is determined.
# The analgesic activity was determined in terms of the percentage of inhibition of response: Inhibition (%)=(TTG−TCG)/TCG×100, where TTG is the Threshold of Treated Group, and TCG is the Threshold of the Control Group.
# [3] = Qualitative solubility of DA-5018 in common solvents; assay type: physicochemical
# Method: In order to show which solvents or solvent/antisolvent combinations are appropriate for crystallization studies, the solubility of DA-5018 in twelve solvents was qualitatively evaluated on a 500 mg-scale. In these experiments, DA-5018 was suspended in 5 volumes of the appropriate solvent and stirred at ambient temperature, then incrementally heated until a complete solubilization was achieved.
# [4] = Solubility curve / metastable zone width in methanol/water (1:1.25, v/v); assay type: physicochemical
# Method: A standard procedure to determine the width of the metastable zone was used to determine the solubility curves of DA-5018 in methanol/water (1:1.25, v/v). In this procedure, DA-5018 (2.0 g) was suspended in 15 mL (7.5 vol) of methanol/water (1:1.25, v/v) and heated until all solids were dissolved (approximately 55° C.). The resulting solution was then very slowly cooled at a fixed rate of 0.2° C./min and the nucleation temperature recorded. The mixture was slowly reheated and the temperature of complete dissolution recorded. The solution was then iteratively diluted with a known volume of solvent and the nucleation as well as the dissolution points recorded at gradually lower concentrations to provide additional data points on the saturation curve as well as on the solubility curve. By definition, for a given concentration, the distance between the solubility curve and the saturation curve provides the metastable zone width (MSZW), in which crystal growth can be achieved upon careful seeding and controlled cooling, antisolvent addition, evaporation or pH adjustment, depending on the chosen crystallization conditions. Such a protocol is often crucial in maximizing crystal growth and curbing spontaneous, secondary nucleation that leads to uncontrolled crystallization.
# [5] = Thermal stress experiments (DSC and XRPD), interconversion of forms; assay type: physicochemical
# Method: To further evaluate these observations, DSC thermograms were obtained for select compounds at various ramping rates to evaluate interconversion of forms, as shown in FIGS. 2(a)-2(c) and 3(a)-3(c). FIGS. 2(a)-2(c) show the conversion of Form I to Form II. The conversion is most readily observed in FIG. 2(a), as conversion was more difficult to observe at the faster ramp rates. […] Additionally, isothermal heating experiments were performed with evaluation by DSC and XRPD to confirm any change of form, as shown in FIGS. 2(d)-2(f) and 3(d)-(f) and Table 3. FIGS. 2(e) and 3(e) show the original XRPD for Forms I and IV, respectively, while FIGS. 2(f) and 3(f) show the XRPD of Form II, formed after thermal conversion.
# [6] = Hygroscopicity by dynamic vapor sorption (DVS); assay type: physicochemical; conditions: for hygroscopicity (in words): DVS, conditions up to 90% RH
# Method: Dynamic vapor sorption analysis (DVS) was at times performed on the sample “as is”. Samples were placed in sample pan and underwent a 2-hour drying in a dry nitrogen stream. The samples were then analyzed under the following conditions:
# Isothermal Sequence: • Adsorption: 10-90% RH; step size 10% • Desorption: 85-0% RH; step size 10%
# Each RH point was obtained after the weight loss curve reached an asymptote. After the isotherm was complete, the sample was heated to 80° C. until the weight loss curve reached an asymptote or for 4 hours maximum.
# Hygroscopicity studies were conducted by DVS on both the original Form I (FIG. 4) and the thermally converted Form II (FIG. 5) of DA-5018. […] In an attempt to further evaluate the physical form of the dihydrate, a second sample of DA-5018 was converted to the dihydrate by exposing the material to 85% RH overnight in the DVS instrument.
# [7] = tested on: adjuvant induced hyperalgesia; conditions: 5 mg/Kg; rats; DA-5018 perorally two hours before tail-pinch testing; cited from earlier work
molecule,measurement,setting,value
"3-(3,4-Dimethylphenyl)acrylonitrile [Example 1]",Inhibition (%),[1]; 0.5 mg/Kg s. c.,50%
same,Inhibition (%),[1]; 1.0 mg/Kg s. c.,70%
CC(=O)Oc1ccccc1C(=O)O [Aspirin],Inhibition (%),[2]; 100 mg/Kg s. c.,80.1%
same,Inhibition (%),[1]; 100 mg/Kg p. o.,0%
"COc1cc(CNC(=O)CCCC/C=C/C(C)C)ccc1O [Capsaicin, trans-8-methyl-N-vanillyl-6-nonenamide]",Inhibition (%),"[1]; 25 mg/Kg, route not given",90%
"COc1cc(CC(=O)NCCCc2ccc(C)c(C)c2)ccc1OCCN [DA-5018, 2-[4-(2-aminoethoxy)-3-methoxyphenyl]-N-[3-(3,4-dimethylphenyl)propyl]acetamide]",Inhibition (%),[2]; 5 mg/Kg p. o.,247.4%
same,solubility (in words),"[3]; MEK, MIBK, EtOAc, IPAc and acetonitrile",sparingly soluble
same,solubility (in words),[3]; methanol at 50° C.,freely soluble
same,solubility (in words),"[3]; methyl tert-butyl ether (MTBE), even at reflux",limited solubility
same,DA-5018 Solubility Trend,"[3]; ranking of solvents, 500 mg-scale, 5 volumes of solvent, ambient temperature then incrementally heated","Acetone >> Methanol > THF > Ethanol, 1-Propanol > 2-; also recorded: Propanol> MEK > MIBK > CH3CN, EtOAc, IPAc >> MTBE >>> Water"
same,Nucleation Temperature (° C.),"[4]; 2.0 g DA-5018 in 15 mL methanol/water (1:1.25, v/v), cooled at 0.2° C./min",39.1 °C
same,Nucleation Temperature (° C.),"[4]; 2.0 g DA-5018 in 20 mL methanol/water (1:1.25, v/v)",34.6 °C
same,Nucleation Temperature (° C.),"[4]; 2.0 g DA-5018 in 25 mL methanol/water (1:1.25, v/v)",34.5 °C
same,Nucleation Temperature (° C.),"[4]; 2.0 g DA-5018 in 30 mL methanol/water (1:1.25, v/v)",34.2 °C
"COc1cc(CC(=O)NCCCc2ccc(C)c(C)c2)ccc1OCCN [Form I, 2-[4-(2-aminoethoxy)-3-methoxyphenyl]-N-[3-(3,4-dimethylphenyl)propyl]acetamide]",conversion of form under thermal conditions (in words),"[5]; 10 minutes of isothermal heating near melting point, 105° C.",convert to Form II
same,hygroscopicity (in words),[6],propensity to absorb moisture
same,relative humidity at which moisture is taken up,"[6]; less crystalline, or amorphous, samples",approximately 30 % RH
"COc1cc(CC(=O)NCCCc2ccc(C)c(C)c2)ccc1OCCN [Form II, 2-[4-(2-aminoethoxy)-3-methoxyphenyl]-N-[3-(3,4-dimethylphenyl)propyl]acetamide]",moisture retention upon desorption (in words),[6]; DVS desorption,did not retain moisture upon desorption
same,hygroscopicity (in words),[6],non-hygroscopic; also recorded: no appreciable hygroscopicity
"COc1cc(CC(=O)NCCCc2ccc(C)c(C)c2)ccc1OCCN [Form III, 2-[4-(2-aminoethoxy)-3-methoxyphenyl]-N-[3-(3,4-dimethylphenyl)propyl]acetamide]",relative humidity to which the dihydrate is stable upon desorption,[6]; DVS desorption,≥ 30 % RH
"COc1cc(CC(=O)NCCCc2ccc(C)c(C)c2)ccc1OCCN [Form IV, 2-[4-(2-aminoethoxy)-3-methoxyphenyl]-N-[3-(3,4-dimethylphenyl)propyl]acetamide]",conversion of form under thermal stress / melt (in words),"[5]; DSC at various ramping rates, melt",conversion of Form IV to Form II
CN1CC[C@]23c4c5ccc(O)c4O[C@H]2[C@@H](O)C=C[C@H]3[C@H]1C5 [Morphine],Inhibition (%),[2]; 3 mg/Kg s. c.,391.7%
same,activity in the tail flick test (in words),"[1]; mouse, in vivo",active
CCCCCCCC/C=C\CCCCCCCC(=O)NCc1ccc(OCCN)c(OC)c1 [NE-21610],Inhibition (%),[1]; 200 mg/Kg p. o.,50%
COc1ccc2cc([C@H](C)C(=O)O)ccc2c1 [Naproxen],Analgesic activity (%),[7],28.6%
CN1C(C(=O)Nc2ccccn2)=C(O)c2ccccc2S1(=O)=O [Piroxicam],Inhibition (%),[1]; 100 mg/Kg p. o.,0%
